# Experimental data taken from patent US20080221132A1, “Multi-Functional Small Molecules as Anti-Proliferative Agents” (priority 2006, published 2008).
# Where two headings read alike, the source gives them in different places.
# What was measured:
# [1] = biological target: Lck Kinase (Homo sapiens, UniProt P06239); assay: Kinase panel (TABLE F), Lck Kinase; format: biochemical
# [2] = tested on: Pancreas_PANC1; assay: Cell proliferation assay (ATPlite), PANC1; format: cell-based; conditions: Homo sapiens, PANC-1; TABLE C; 72 hours, 0.5% fetal bovine serum, ATP content; read-out: IC50 grading, Pancreas_PANC1
# Description: (§1) A representative number of compounds were assayed against several different cell lines using the cell proliferation assay:
# (§2) Cell Proliferation Assay:
# (§3) Cancer cell lines were plated at 5,000 to 10,000 per well in 96-well flatted bottomed plates with various concentration of compounds. The cells were incubated with compounds for 72 hours in the presence of 0.5% of fetal bovine serum. Growth inhibition was accessed by adenosine triphosphate (ATP) content assay using Perkin Elmer ATPlite kit. ATPlite is an ATP monitoring system based on firefly luciferase. Briefly, 25 μl of mammalian cell lysis solution was added to 50 μl of phenol red-free culture medium per well to lyse the cells and stabilize the ATP. 25 μl of substrate solution was then added to the well and subsequently the luminescence was measured.
# [3] = both, Sprague Dawley, rat, in vivo, iv, 8 days
# Description: The experimental methods used for the toxicity study below are described as follows:
# 2. Single dosing MTD in rats • a. Sprague Dawley, male and female, 240-260 gram • b. Dosing at 0, 25, 50, 100, 200 mg/kg, iv infusion 5 min • c. 6 rats per group (3 male and 3 female)
# (§4) Stock solution is diluted with 30% CAPTISOL before use.
# [4] = biological target: FGFR2 Kinase (Homo sapiens, UniProt P21802); assay: Kinase panel (TABLE F), FGFR2 Kinase; format: biochemical
# Chain of FGFR2 Kinase (P21802 22-821): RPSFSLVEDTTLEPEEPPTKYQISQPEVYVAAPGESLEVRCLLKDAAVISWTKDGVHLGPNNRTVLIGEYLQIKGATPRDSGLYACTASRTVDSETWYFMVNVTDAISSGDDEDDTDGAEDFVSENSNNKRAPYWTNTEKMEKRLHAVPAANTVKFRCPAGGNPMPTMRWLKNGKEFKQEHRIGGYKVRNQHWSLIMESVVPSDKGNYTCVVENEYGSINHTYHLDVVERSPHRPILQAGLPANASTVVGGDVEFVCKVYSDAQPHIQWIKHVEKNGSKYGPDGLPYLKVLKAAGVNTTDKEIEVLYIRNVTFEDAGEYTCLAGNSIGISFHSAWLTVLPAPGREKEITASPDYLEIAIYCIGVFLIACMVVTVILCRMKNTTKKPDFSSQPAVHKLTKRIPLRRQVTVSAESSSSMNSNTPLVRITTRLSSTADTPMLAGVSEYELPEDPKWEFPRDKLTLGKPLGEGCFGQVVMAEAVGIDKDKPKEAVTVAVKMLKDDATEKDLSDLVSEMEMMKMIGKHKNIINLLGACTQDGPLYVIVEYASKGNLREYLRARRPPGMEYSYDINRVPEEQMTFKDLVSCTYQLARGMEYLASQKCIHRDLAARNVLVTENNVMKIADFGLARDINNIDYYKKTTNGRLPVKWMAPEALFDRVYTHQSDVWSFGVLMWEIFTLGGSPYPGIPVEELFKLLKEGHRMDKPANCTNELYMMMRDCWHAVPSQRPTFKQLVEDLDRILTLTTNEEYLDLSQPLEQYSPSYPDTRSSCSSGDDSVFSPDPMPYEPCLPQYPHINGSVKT
# [5] = tested on: Breast_MCF7 (MCF-7, breast adenocarcinoma); assay: Cell proliferation assay (ATPlite), MCF7; format: cell-based; conditions: Homo sapiens, TABLE C, 72 hours, 0.5% fetal bovine serum, ATP content, read-out: IC50 grading, Breast_MCF7
# Description: as §1, §2
# as §3, with “The cells were incubated with compounds for 72 hours in the presence of 0.5% of fetal bovine serum.” left out
# [6] = male, CD-1, mouse, in vivo, iv, 9 day
# Description: Single dosing MTD in mice • a. CD-1 mice, male, 24-26 gram • b. Dosing at 0, 50, 100, 200, 400 mg/kg, iv infusion 2 min • c. 8 mice per group
# as §4
# [7] = tested on: Pancreas_MiaPaCa2; assay: Cell proliferation assay (ATPlite), MiaPaCa2; format: cell-based; conditions: Homo sapiens, MIA PaCa-2; TABLE C; 72 hours, 0.5% fetal bovine serum, ATP content; read-out: IC50 grading, Pancreas_MiaPaCa2
# Description: as §1, §2, §3
# [8] = tested on: Lung_H2122; assay: Cell proliferation assay (ATPlite), H2122; format: cell-based; conditions: Homo sapiens, NCI-H2122; TABLE C; 72 hours, 0.5% fetal bovine serum, ATP content; read-out: IC50 grading, Lung_H2122
# Description: as §1, §2, §3
# [9] = tested on: Prostate_22RV1 (22RV1, prostate carcinoma); assay: Cell proliferation assay (ATPlite), 22RV1; format: cell-based; conditions: Homo sapiens
# Description: as §1, §2
# as §3, with “The cells were incubated with compounds for 72 hours in the presence of 0.5% of fetal bovine serum.” left out
# Chain of Lck Kinase (P06239 whole entry): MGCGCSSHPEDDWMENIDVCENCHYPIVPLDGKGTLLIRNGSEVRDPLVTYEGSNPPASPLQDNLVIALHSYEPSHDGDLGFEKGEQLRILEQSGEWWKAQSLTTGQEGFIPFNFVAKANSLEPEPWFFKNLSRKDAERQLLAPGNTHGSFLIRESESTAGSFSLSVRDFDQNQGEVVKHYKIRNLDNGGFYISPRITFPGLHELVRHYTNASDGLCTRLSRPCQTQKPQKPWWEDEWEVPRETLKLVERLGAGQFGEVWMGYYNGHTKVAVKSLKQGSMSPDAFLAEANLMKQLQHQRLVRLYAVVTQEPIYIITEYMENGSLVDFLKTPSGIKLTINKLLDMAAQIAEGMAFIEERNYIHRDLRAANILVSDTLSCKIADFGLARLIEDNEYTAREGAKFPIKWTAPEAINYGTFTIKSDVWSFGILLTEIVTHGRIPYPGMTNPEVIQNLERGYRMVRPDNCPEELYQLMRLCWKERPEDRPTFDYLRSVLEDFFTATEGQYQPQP
structure (smiles),measurement,setting,value
C#Cc1cccc(Nc2ncnc3cc(OC)c(OCCCCCCC(=O)NO)cc23)c1 [Compound 12],inhibition at 5 µM,[1],56%
same,IC50,[2],100 to 1000 nM
same,dose without significant change in body weight,[3],up to 200 mg/kg
same,inhibition at 5 µM,[4],73%
same,IC50,[5],< 100 nM
same,dose without significant change in body weight,[6],up to 200 mg/kg
same,IC50,[7],100 to 1000 nM
same,IC50,[8],100 to 1000 nM
same,IC50,"[9]; TABLE C, 72 hours, 0.5% fetal bovine serum, ATP content, read-out: IC50 grading, Prostate_22RV1",100 to 1000 nM
same,IC50,"[9]; TABLE D, Prostate carcinoma, read-out: IC50 grading, 22RV1",50 to 500 nM
